{"source": "patent US11369665B2", "about": "“Anti-inflammatory peptides and composition comprising the same” (GemVax & KAEL Co., Ltd., priority 2012, dated 2022)", "key": {"IL-6": {"test_system": "IL-6", "experiment": "IL-6 secretion measurement by ELISA in LPS-challenged RAW 264.7 cells", "type": "cell-based", "protocol": "Raw 264.7 macrophage cell (KCBL, 40071) from Korea Cell Bank was maintained in Dulbecco's modified Eagle's medium (DMEM; PAA, Austria) containing 10% fetal bovine serum (FBS; GIBCO®), 100 unit/mL of streptomycin, and penicillin (Gibco Laboratories) at 37° C. with 5% CO2. Raw 264.7 cells were seeded into a 96-well plate at a density of 1×10^6 cells/mL and incubated overnight.\nOn the following day, the medium was replaced with fresh medium and 5 μg/mL of peptide (obtained as described in Experiment example 1) was added to the cells. After 30 min incubation of cells with the peptide 50 μL of LPS (to a final concentration of 1 μg/mL) was added, and cells were incubated for additional 24 hr. The experimental sample with the induction of inflammatory response was treated with 1 μg/mL mL lipopolysaccharide (LPS; SIGMA-ALDRICH®, USA) and control sample was treated with phosphate buffered saline (PBS; pH 7.2). The supernatant samples from each condition was collected in eppendorf tubes and subjected to further analysis.\nTo investigate the effect of PEP-1 on inhibiting proinflammatory cytokine production RAW 264.7 cell were pre-treated with PEP 1 at a concentration of 5 μg/mL challenged with LPS at a concentration of 1 μg/mL, and cells were further incubated for 24 hr. The supernatant samples containing cell culture medium was collected and analyzed for the cytokine levels using ELISA kits (eBioscience, San Diego).\n96 wells plates were coated with 100 μL of capture antibodies (diluted in coating buffer to the concentration recommended by manufacturer's protocol) overnight at 4° C. Then, after washing the plates 5 times, 200 μL of assay diluents was added to each well and incubated for 1 hr at room temperature for blocking. […]\nFollowing incubation with the secondary antibody, the plate was washed five times and incubated with 100 μL of avidin-HRP (BD Bioscience) for 30 min at room temperature. […] The reaction was stopped by adding 50 μl of 2N H2SO4 in each well The optical density at 450 nm was measured using a microplate reader. […]"}, "cytokines": {"test_system": "cytokines", "experiment": "qRT-PCR of cytokine levels in THP1 cell line", "type": "cell-based, human", "conditions": "PMA-differentiated THP-1, LPS 10 ng/ml and 4 μM peptide, 4 hr, FIG. 3", "protocol": "As a Human acute monocytic leukemia cell line, THP-1 monocyte cell line ([…] TYPE CULTURE COLLECTION® (Manassas, Va., USA) was used to reconfirm the effects of PEP 1. Cells were grown at a density of 0.5-7×10^5 cells/mL in RPMI 1640 containing 10% FBS, 0.05 mM 2-mercaptoethanol, 100 U/ml penicillin, 100 μg/mL streptomycin, and maintained at 37° C. under 5% CO2. THP-1 cells were differentiated into macrophages by treating cells with phorbol myristate acetate (PMA) at 100 ng/mL for 24 hr at 37° C. for 24 hr.\nFollowing differentiation into macrophages, THP-1 cells were washed two times using complete RPMI 1640 (5 min/wash). Then, cells were treated for 4 hr. with 10 ng/ml LPS and/or 4 μM peptide RIA in FBS free RPMI 1640.\nTotal RNA samples were isolated from peptide-treated THP-1 cells by using Trizol (QIAZOL®) reagent and, and cDNA was synthesized by reverse transcriptase PCR using reverse transcription PCR kit from PROMEGA CORPORATION® following manufacturer's protocol.\nThen, real-Time qPCR was performed using CFX96 (BIO-RAD®) instrument with SYBR® Green qPCR system. Primers used in the experiments are found in Table 5. The PCR cycling conditions were 95° C. for 10 min for activation of HotStart DNA Taq Polymerase, followed by 45 cycles of 95° C. for 10 sec. […] All samples were measured in triplicate and differences in gene expression were calculated using the 2-cycle threshold method. […]"}, "neural stem cells": {"test_system": "neural stem cells", "experiment": "Co-treatment amyloid-β and PEP-1: cell death (LDH assay)", "type": "cell-based, rat", "conditions": "20 μM amyloid-β protein, co-treated 48 hours", "protocol": "To determine whether PEP 1 has the effect of suppressing the neurotoxicity caused by amyloid-β protein, 20 μM amyloid-β protein and various concentrations of PEP-1 were co-treated for 48 hours. The cell viability and apoptosis were measured using MMT assay, CCK-8 assay, LDH assay and TUNEL assay, and neural stem cell proliferation by BrdU assay.\n(Refer to FIG. 8). LDH assay was carried out for assessment of the degree of cell death as another method, and we confirmed that the increase in cell death by amyloid-β decreased by PEP-1, and efficacy was seen starting at 1 μM concentration (Refer to FIG. 9)."}, "[1]": {"test_system": "Ki67, pAKT, PI3K, HSTF-1 and Bcl-2", "experiment": "Western blot of anti-apoptotic proteins in amyloid-β damaged neural stem cells", "type": "cell-based, rat", "conditions": "20 μM amyloid beta, PEP-1 1, 10 and 50 μM, FIGS. 15A-15F"}, "[2]": {"conditions": "RAW 264.7 cells, LPS 1 μg/ml, PEP 1 5 μg/ml, 24 hr"}}}
{"sequence": "EARPALLTSRLRFIPK [PEP-1]", "values": [{"measurement": "cytokine IL-6 production % of control", "setting": "IL-6; [2]", "value": 28, "unit": "%"}, {"measurement": "cytokine IL-6 production inhibition %", "setting": "IL-6; [2]", "value": 72, "unit": "%"}, {"measurement": "decrease of proinflammatory cytokine secretion (IL-6)", "setting": "IL-6; co-treatment with LPS", "value": "more than 70%"}, {"measurement": "cytokines involved in the inflammatory responses (qRT-PCR)", "setting": "cytokines", "value": "decreased noticeably"}, {"measurement": "concentration at which efficacy starts (LDH)", "setting": "neural stem cells", "value": 1, "unit": "µM"}, {"measurement": "increase in cell death by amyloid-β (LDH)", "setting": "neural stem cells", "value": "decreased"}, {"measurement": "protein expression levels of anti-apoptotic proteins Ki67, pAKT, PI3K, HSTF-1, Bcl-2", "setting": "[1]", "value": "increased the protein expression levels"}]}
